US20160083776A1, “Methods for Measuring Polymerase Activity Useful for Sensitive, Quantitative Measurements of Any Polymerase Extension Activity and for Determining the Presence of Viable Cells” (Zeus Scientific, Inc., priority 2012, published 2016)

How the values were obtained:
Assay type in all cases: biochemical
[1] = test system: E. coli-derived DNA polymerase activity; experiment: Bead lysis-coupled DPE-PCR, ddCTP substitution, E. coli lysate; details: 50 μM ddCTP substituted for dCTP, compared to standard reaction mix; crude bead mill lysate
Experimental: (§1) FIG. 5 illustrates that detection of bacteria by DPE-PCR is blocked by ddCTP. 5 μL of E. coli suspension were added to bead lysis-coupled DNA polymerase assays comprised of a dNTP mix containing either 50 μM dCTP or 50 μM ddCTP. DPE-PCR curves representing E. coli-derived DNA polymerase activity is presented. Plots were generated using the average qPCR Ct values from triplicate reactions at the indicated conditions. ddCTP termination and dCTP rescue experiments were performed for S. aureus exactly as described above for E. coli.
(§2) S. aureus and E. coli cultures were grown to an OD600 of 1.0±0.2 (approximately 1×10^9 cfu/mL.) For each organism, 1 mL of culture was pelleted and washed three times in T.E. Bacterial suspensions were serially diluted in T.E., and 5 μL of each stock were added to bead mill lysis tubes containing 50 μL DNA polymerase extension reaction mixture (see above for composition). A titration curve of 1×10^5 to […] cfu/reaction was performed in triplicate for each organism, including triplicate reactions without bacterial suspension.
(§3) After the addition of 5 μL bacterial stock, reaction tubes were bead milled for 6 min. at 2800 rpm using a digital Vortex Genie equipped with a disrupter head (Scientific Industries). Immediately after disruption, sample tubes were placed at 37° C. for 20 minutes. […]

[2] = test system: S. aureus DNA polymerase extension activity; experiment: Bead lysis-coupled DPE-PCR, ddCTP substitution, S. aureus lysate; details: 50 μM ddCTP substituted for dCTP, compared to standard reaction mix; crude bead mill lysate
Experimental: as §1, §2, §3

DNA polymerase I = biological target: T1, DNA polymerase I (Escherichia coli, UniProt P00582); experiment: DPE-PCR assay, ddCTP termination of purified DNA polymerase extension activity; details: 50 μM ddCTP substituted for dCTP in the extension reaction mix; 37° C., 20 minutes
T1 construct: purchased New England Biolabs MO209
Experimental: DNA Pol I (NEB cat# MO209L), Klenow (NEB cat# MO210S) and Klenow exo(−) (NEB cat# MO212S) were diluted to the indicated U/μL stock in sterile T.E. pH 8.0. To begin, 2 μL of DNA polymerase stock at each concentration were placed into a 50 μL DNA polymerase extension reaction mixture containing the following components: 50 μM dNTP, 20 mM Tris pH 8.0, 10 mM Ammonium sulfate, 10 mM Potassium chloride, 2 mM Magnesium sulfate, 1% BSA, 0.1% Triton X-100, 0.1% Tween 20, and 0.001 μM pre-annealed DNA substrate (described above. Two micro-liters of T.E. (without DNA polymerase) was routinely added to an additional tube containing complete DNA polymerase extension reaction mixture and is referred to as a “No Input Control” (NIC). Reactions containing DNA polymerase (or No Input Controls) were vortexed briefly and placed at 37° C. for 20 minutes. After 20 minutes, 3 μL of each reactions containing purified DNA polymerase were immediately placed into a qPCR reaction (see below for qPCR conditions).
DNA polymerase extension reactions were prepared as described above with a 50 μM [dATP, dGTP, dTTP] mixture supplemented with either 50 μM dCTP or 50 μM ddCTP (Affymetrix #77332.) 50 μL DNA polymerase extension reactions with a 50 μM [dATP, dGTP, dTTP] mixture, supplemented with either dCTP or ddCTP, were spiked with 2 μL of a 1×10^−9 U/μL stock of DNA polymerase I (New England Biolabs # MO209). […]

T1 sequence (P00582 whole entry): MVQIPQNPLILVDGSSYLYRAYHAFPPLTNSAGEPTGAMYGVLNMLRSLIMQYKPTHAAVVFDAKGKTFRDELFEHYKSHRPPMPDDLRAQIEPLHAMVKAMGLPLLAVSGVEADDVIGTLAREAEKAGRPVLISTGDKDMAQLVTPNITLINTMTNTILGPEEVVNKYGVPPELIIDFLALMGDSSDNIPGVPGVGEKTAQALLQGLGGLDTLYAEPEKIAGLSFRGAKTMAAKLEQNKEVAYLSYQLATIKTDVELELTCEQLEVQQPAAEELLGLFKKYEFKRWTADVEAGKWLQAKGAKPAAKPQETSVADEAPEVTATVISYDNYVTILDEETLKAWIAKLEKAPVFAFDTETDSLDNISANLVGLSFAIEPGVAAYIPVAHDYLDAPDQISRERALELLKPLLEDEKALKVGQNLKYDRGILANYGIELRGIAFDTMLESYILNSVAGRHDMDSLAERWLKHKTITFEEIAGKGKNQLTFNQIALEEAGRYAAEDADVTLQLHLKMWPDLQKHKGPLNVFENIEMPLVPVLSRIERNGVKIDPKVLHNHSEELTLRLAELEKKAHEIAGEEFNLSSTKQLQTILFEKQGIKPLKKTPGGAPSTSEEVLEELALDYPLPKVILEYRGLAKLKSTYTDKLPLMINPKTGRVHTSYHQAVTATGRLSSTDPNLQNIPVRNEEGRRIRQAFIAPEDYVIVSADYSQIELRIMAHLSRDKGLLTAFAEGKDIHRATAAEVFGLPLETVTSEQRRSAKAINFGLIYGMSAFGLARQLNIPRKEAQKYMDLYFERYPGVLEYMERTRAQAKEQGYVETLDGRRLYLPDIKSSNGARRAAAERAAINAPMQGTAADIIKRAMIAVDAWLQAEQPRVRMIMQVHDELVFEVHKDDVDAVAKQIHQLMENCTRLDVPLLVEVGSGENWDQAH

Nc1ccn([C@H]2CC[C@@H](COP(=O)(O)OP(=O)(O)OP(=O)(O)O)O2)c(=O)n1 [ddCTP, 2′,3′-Dideoxycytidine-5′-Triphosphate]
DPE-PCR signal derived from E. coli cfu spikes [1]: blocked the generation of signal | DPE-PCR signal derived from S. aureus cfu spikes [2]: blocked the generation of signal | DPE-PCR assay signal generated by DNA polymerase I (DNA polymerase I): eliminates signal
